Laboratory results: patent publication US20260365670A1, “EGFR INHIBITORS AND USES THEREOF” (DIZAL (JIANGSU) PHARMACEUTICAL CO., LTD., priority 2022, published 2026)
Where two headings read alike, the source gives them in different places.

What was measured:
EGFR L858R/T790M = target: T1, EGFR L858R/T790M (Homo sapiens, UniProt P00533, L858R/T790M); experiment: Inhibition of EGFR L858R/T790M biochemical enzymatic activity (HTRF); details: EGFR L858R-T790M, 1 mM ATP, 1 h, room temperature, read-out: IC50 (nM) @L858R-T790M
T1 construct: purchased Carna Bio
Outline: (§1)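 Enzyme preincubated with compound, then ATP (1 mM) and TK substrate-biotin (1 μM) added; 1 h RT; stopped with EDTA-containing detection mix; HTRF read (ex 320, em 615/665 nm); IC50 by 4-parameter logistic fit.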

EGFR (C797S L858R) = target: T2, EGFR (C797S L858R) (Homo sapiens, UniProt P00533, C797S/L858R); experiment: Inhibition of EGFR (C797S L858R) biochemical enzymatic activity (HTRF); details: EGFR L858-C797S, 1 mM ATP, 1 h, room temperature, read-out: IC50 (nM) @L858-C797S
T2 construct: purchased signalchem
Outline: as §1

EGFR L858R = target: T3, EGFR L858R (Homo sapiens, UniProt P00533, L858R); experiment: Inhibition of EGFR L858R biochemical enzymatic activity (HTRF); details: 1 mM ATP, 1 h, room temperature, read-out: IC50 (nM) @L858R
T3 construct: purchased Carna Bio
Outline: as §1

A-431 = experiment: Cell proliferation GI50, A-431 cells (Table 6); format: cell-based
EGFR wild type = target: T4, EGFR wild type (Homo sapiens, UniProt P00533); experiment: Inhibition of EGFR wild type biochemical enzymatic activity (HTRF); details: EGFR WT, 1 mM ATP, 1 h, room temperature, read-out: IC50 (nM) @WT
T4 construct: purchased Carna Bio
Outline: as §1

[1] = tested on: Ba/F3 cells expressing EGFR mutations; experiment: Cell proliferation assay, Ba/F3 cells expressing EGFR mutations (CellTiter-Glo, 72 hours); format: cell-based; details: CellTiter-Glo
Outline: (§2)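 In RPMI1640 medium (PC-9 with 10% FBS), each cell line was seeded at its own density: Ba/F3 5000 and PC-9 500 per well. A compound series was added the next day, with a time-zero viability plate read in parallel. Percent proliferation was subtracted for G0 and referenced to DMSO, and GI50 was derived by curve fitting.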

EGFR (d746-750 C797S) = target: T5, EGFR (d746-750 C797S) (Homo sapiens, UniProt P00533, C797S/DEL746-750); experiment: Inhibition of EGFR (d746-750 C797S) biochemical enzymatic activity (HTRF); details: EGFR Del19-C797S, 1 mM ATP, 1 h, room temperature, read-out: IC50 (nM) @Del19-C797S
T5 construct: purchased signalchem
Outline: as §1

PC-9 = experiment: Cell proliferation assay, PC-9 cells (CellTiter-Glo, 72 hours); format: cell-based; details: PC9 cells, CellTiter-Glo, read-out: PC9 GI50
Outline: as §2

EGFR Exon19Del/T790M = target: T6, EGFR Exon19Del/T790M (Homo sapiens, UniProt P00533, DEL746-750/T790M); experiment: Inhibition of EGFR Exon19Del/T790M biochemical enzymatic activity (HTRF); details: EGFR Del19-T790M, 1 mM ATP, 1 h, room temperature, read-out: IC50 (nM) @Del19-T790M
T6 construct: purchased Carna Bio
Outline: as §1

EGFR[T790M/C797S/L858R] = target: T7, EGFR[T790M/C797S/L858R] (Homo sapiens, UniProt P00533, C797S/L858R/T790M); experiment: Inhibition of EGFR[T790M/C797S/L858R] biochemical enzymatic activity (HTRF); details: EGFR T790M-C797S-L858R, 1 mM ATP, 1 h, room temperature, read-out: IC50 (nM) @T790M- C797S - L858R
T7 construct: purchased Carna Bio
Outline: as §1

[2] = target: T8, EGFR[T790M/C797S/d746-750] (Homo sapiens, UniProt P00533, C797S/DEL746-750/T790M); experiment: Inhibition of EGFR[T790M/C797S/d746-750] biochemical enzymatic activity (HTRF); details: EGFR T790M-C797S-Del19, 1 mM ATP, 1 h, room temperature, read-out: IC50 (nM) @T790M - C797S - Del19
T8 construct: purchased Carna Bio
Outline: as §1

EGFR Exon19Del = target: T9, EGFR Exon19Del (Homo sapiens, UniProt P00533, DEL746-750); experiment: Inhibition of EGFR Exon19Del biochemical enzymatic activity (HTRF); details: EGFR Del19, 1 mM ATP, 1 h, room temperature, read-out: IC50 @Del19
T9 construct: purchased Carna Bio
Outline: as §1

[3] = BaF3 cells, EGFR DEL19-C797S, read-out: DEL19-C797S/BaF3 GI50
[4] = BaF3 cells, EGFR DEL19-T790-C797S, read-out: DEL19-T790-C797S/BaF3 GI50
[5] = BaF3 cells, EGFR L858R, read-out: L858R/BaF3 GI50
[6] = BaF3 cells, EGFR L858R-C797S, read-out: L858R-C797S/BaF3 GI50
[7] = BaF3 cells, EGFR L858R-T790-C797S, read-out: L858R-T790-C797S/BaF3 GI50
[8] = BaF3 cells, EGFR L858R-T790M, read-out: L858R-T790M/BaF3 GI50
[9] = EGFR DEL19-T790M, read-out: DEL19-T790M GI50
[10] = Homo sapiens, A-431, A-431 cells
[11] = Mus musculus, BaF3, 72 h, BaF3 cells, EGFR DEL19-C797S, read-out: DEL19-C797S/BaF3 GI50
[12] = Mus musculus, BaF3, 72 h, BaF3 cells, EGFR DEL19-T790-C797S, read-out: DEL19-T790-C797S/BaF3 GI50
[13] = Mus musculus, BaF3, 72 h, BaF3 cells, EGFR L858R, read-out: L858R/BaF3 GI50
[14] = Mus musculus, BaF3, 72 h, BaF3 cells, EGFR L858R-C797S, read-out: L858R-C797S/BaF3 GI50
[15] = Mus musculus, BaF3, 72 h, BaF3 cells, EGFR L858R-T790-C797S, read-out: L858R-T790-C797S/BaF3 GI50
[16] = Mus musculus, BaF3, 72 h, BaF3 cells, EGFR L858R-T790M, read-out: L858R-T790M/BaF3 GI50
[17] = Mus musculus, BaF3, 72 h, EGFR DEL19-T790M, read-out: DEL19-T790M GI50

T9 sequence (P00533 with tags, fused parts or gaps DEL746-750 limits assumed): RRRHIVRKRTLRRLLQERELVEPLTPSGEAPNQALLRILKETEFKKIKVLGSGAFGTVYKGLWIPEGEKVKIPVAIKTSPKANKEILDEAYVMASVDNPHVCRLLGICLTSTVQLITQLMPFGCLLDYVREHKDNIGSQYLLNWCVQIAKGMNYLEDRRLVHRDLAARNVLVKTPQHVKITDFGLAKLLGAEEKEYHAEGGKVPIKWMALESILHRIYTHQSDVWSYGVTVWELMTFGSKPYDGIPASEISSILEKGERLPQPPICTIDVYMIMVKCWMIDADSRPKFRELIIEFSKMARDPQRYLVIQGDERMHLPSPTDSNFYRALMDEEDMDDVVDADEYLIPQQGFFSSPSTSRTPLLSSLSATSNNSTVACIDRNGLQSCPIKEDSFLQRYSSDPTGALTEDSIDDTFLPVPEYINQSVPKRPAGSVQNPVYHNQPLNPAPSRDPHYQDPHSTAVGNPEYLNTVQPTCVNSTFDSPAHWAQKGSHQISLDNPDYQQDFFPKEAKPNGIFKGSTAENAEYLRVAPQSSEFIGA
T4 sequence (P00533 25-1210): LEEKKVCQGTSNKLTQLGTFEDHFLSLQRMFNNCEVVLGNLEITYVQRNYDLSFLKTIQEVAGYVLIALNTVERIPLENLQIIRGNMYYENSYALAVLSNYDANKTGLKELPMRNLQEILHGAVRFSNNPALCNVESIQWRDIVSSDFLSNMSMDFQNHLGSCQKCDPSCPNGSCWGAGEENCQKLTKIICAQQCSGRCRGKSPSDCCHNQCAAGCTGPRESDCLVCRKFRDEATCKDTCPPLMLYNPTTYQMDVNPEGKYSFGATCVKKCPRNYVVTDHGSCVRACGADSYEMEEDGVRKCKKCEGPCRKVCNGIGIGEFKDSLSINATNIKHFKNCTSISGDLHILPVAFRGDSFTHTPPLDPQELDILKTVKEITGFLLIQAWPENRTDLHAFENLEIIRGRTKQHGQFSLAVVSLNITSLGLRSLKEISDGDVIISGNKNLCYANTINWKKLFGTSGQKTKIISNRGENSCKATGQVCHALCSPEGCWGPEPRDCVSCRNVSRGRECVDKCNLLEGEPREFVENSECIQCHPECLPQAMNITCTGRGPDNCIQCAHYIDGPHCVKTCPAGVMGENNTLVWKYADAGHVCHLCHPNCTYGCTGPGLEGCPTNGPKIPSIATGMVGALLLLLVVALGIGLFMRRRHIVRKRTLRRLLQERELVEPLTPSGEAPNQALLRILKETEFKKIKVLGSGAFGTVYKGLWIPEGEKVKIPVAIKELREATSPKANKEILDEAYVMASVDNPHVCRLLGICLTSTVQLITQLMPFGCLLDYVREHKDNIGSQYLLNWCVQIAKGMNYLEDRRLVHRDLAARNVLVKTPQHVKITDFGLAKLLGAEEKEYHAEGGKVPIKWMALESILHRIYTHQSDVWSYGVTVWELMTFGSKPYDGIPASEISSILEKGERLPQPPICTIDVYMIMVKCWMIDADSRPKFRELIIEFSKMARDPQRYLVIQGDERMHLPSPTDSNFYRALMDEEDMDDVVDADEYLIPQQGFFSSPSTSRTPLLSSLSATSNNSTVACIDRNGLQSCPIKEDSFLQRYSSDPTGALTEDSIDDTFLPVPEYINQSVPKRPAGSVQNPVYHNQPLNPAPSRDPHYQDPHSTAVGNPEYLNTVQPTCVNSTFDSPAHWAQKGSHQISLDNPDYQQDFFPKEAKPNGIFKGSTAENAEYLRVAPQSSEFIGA
T2 sequence (P00533 25-1210 C797S/L858R): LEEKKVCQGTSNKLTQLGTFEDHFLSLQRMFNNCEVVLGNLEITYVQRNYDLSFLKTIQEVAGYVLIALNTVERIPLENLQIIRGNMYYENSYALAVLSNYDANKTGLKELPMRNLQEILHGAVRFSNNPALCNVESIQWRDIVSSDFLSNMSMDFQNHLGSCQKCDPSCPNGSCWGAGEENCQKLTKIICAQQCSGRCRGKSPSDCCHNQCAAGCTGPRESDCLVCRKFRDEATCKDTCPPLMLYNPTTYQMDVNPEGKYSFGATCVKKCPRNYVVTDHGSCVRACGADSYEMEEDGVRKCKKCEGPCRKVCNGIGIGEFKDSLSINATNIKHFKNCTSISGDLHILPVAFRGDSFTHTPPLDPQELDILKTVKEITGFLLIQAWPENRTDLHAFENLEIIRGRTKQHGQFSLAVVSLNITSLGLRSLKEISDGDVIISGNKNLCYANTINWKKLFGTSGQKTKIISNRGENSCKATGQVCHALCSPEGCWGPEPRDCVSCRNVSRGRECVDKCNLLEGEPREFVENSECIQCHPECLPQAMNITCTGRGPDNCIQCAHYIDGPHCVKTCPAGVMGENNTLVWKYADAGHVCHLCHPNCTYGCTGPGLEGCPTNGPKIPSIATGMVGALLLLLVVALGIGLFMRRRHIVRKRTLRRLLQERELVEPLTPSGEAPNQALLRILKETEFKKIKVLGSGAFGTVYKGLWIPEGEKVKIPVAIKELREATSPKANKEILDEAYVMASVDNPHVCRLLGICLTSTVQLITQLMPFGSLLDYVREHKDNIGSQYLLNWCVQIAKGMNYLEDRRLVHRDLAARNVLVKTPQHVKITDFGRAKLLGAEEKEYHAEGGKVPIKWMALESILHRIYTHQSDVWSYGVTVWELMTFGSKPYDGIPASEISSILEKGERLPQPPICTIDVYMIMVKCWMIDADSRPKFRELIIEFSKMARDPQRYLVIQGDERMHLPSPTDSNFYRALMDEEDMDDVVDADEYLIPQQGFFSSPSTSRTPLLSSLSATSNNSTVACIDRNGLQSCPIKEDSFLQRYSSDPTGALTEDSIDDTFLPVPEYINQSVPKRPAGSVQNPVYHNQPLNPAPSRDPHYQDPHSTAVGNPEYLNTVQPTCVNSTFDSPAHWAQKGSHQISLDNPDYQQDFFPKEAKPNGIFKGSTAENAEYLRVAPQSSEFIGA
T5 sequence (P00533 with tags, fused parts or gaps DEL746-750/C797S limits assumed): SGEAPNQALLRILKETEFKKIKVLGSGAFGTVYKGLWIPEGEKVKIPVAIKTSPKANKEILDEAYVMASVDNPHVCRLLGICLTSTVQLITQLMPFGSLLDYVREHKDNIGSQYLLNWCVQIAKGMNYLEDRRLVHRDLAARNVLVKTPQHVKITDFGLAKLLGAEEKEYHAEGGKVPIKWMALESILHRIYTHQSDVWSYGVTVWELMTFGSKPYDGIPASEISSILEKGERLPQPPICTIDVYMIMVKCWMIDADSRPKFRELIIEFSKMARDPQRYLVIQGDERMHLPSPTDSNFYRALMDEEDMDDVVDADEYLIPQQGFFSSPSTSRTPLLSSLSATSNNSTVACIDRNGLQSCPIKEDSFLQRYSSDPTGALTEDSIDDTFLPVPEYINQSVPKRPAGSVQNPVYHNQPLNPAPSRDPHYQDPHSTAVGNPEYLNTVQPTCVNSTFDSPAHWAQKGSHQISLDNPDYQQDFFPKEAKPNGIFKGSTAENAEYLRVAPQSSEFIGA
T6 sequence (P00533 with tags, fused parts or gaps DEL746-750/T790M limits assumed): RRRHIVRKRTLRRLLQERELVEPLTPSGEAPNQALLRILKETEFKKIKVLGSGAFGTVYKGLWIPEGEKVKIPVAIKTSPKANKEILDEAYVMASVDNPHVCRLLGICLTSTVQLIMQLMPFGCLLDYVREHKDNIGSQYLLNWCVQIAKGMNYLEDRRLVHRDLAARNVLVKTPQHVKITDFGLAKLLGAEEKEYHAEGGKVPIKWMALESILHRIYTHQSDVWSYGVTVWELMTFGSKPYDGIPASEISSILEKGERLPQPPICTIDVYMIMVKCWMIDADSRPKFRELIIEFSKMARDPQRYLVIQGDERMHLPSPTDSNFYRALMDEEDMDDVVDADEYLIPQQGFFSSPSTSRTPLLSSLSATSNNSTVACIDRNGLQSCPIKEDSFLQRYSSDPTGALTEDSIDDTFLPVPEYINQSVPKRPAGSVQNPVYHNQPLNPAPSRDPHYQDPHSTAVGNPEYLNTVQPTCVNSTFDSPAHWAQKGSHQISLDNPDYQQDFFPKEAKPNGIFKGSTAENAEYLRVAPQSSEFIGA
T8 sequence (P00533 with tags, fused parts or gaps DEL746-750/T790M/C797S limits assumed): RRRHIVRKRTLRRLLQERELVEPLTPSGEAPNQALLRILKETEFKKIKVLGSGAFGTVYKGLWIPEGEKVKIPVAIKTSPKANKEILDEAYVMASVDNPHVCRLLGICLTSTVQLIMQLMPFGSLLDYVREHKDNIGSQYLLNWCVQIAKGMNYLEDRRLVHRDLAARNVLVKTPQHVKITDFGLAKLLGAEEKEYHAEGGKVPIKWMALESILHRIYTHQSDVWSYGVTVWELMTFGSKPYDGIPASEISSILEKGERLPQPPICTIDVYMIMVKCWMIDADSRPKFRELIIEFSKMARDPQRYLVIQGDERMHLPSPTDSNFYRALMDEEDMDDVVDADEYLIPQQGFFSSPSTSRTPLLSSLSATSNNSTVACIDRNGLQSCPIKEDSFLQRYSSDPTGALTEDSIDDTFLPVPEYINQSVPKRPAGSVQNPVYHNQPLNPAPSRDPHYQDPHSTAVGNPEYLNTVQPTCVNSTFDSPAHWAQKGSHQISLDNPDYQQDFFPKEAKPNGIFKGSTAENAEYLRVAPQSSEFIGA

Compound | IC50 (EGFR L858R/T790M) | IC50 (EGFR (C797S L858R)) | IC50 (EGFR L858R) | GI50 (A-431; A-431 cells) | IC50 (EGFR wild type) | GI50 [1, 3] | GI50 [1, 4] | GI50 [1, 5] | GI50 [1, 6] | GI50 [1, 7] | GI50 [1, 8] | GI50 [1, 9] | IC50 (EGFR (d746-750 C797S)) | GI50 (PC-9) | IC50 (EGFR Exon19Del/T790M) | IC50 (EGFR[T790M/C797S/L858R]) | IC50 [2] | IC50 (EGFR Exon19Del) | GI50 (A-431; [10]) | GI50 [1, 11] | other results
CN1CCN(c2ccc3c(c2)nc2n3C34CCC(CN(CCOc5c(cnn5C)-c5cc(cn(C)c5=O)C(=O)N2)C3)C4)CC1 (stereo not drawn) [Example A60A, 15,21-dimethyl-6-(4-methylpiperazin-1-yl)-23-oxa-2,9,11,15,20,21,26-heptaazaheptacyclo[24.4.1.1^{1,28}.1^{13,17}.0^{2,10}.0^{3,8}.0^{18,22}]tritriaconta-3,5,7,9,13,17(33),18(22),19-octaene-12,16-dione] | > 5000 nM | > 5000 nM | > 5000 nM | 6550 nM | > 5000 nM | 96 nM | 166 nM | 315 nM | 519 nM | 403 nM | 1400 nM | 285 nM | 196 nM | 633 nM | 141 nM | > 5000 nM | 117 nM | 276 nM | – | – | –
CN1CCN(c2ccc3c(c2)nc2n3C34CCC(CN(CCOc5c(cnn5C)-c5cc(cn(C)c5=O)C(=O)N2)C3)C4)CC1 (stereo not drawn) [Example A60B, 15,21-dimethyl-6-(4-methylpiperazin-1-yl)-23-oxa-2,9,11,15,20,21,26-heptaazaheptacyclo[24.4.1.1^{1,28}.1^{13,17}.0^{2,10}.0^{3,8}.0^{18,22}]tritriaconta-3,5,7,9,13,17(33),18(22),19-octaene-12,16-dione] | 49 nM | 65 nM | 135 nM | 1340 nM | 4480 nM | 1.4 nM | 4.4 nM | 21 nM | 15 nM | 8.4 nM | 53 nM | 6.9 nM | 1.7 nM | 15 nM | 0.82 nM | 44 nM | 0.81 nM | 3.2 nM | – | – | –
Cn1ncc2c1OCCN1CC3CCC(C3)(C1)n1c(nc3ccccc31)NC(=O)c1cc-2c(=O)n(C)c1 (stereo not drawn) [Example A61B, 15,21-Dimethyl-23-oxa-2,9,11,15,20,21,26-heptaazaheptacyclo[24.4.1.1^{1,28}.1^{13,17}.0^{2,10}.0^{3,8}.0^{18,22}]tritriaconta-3,5,7,9,13,17(33),18(22),19-octaene-12,16-dione] | 8 nM | 146 nM | 224 nM | – | 2420 nM | – | – | – | – | – | – | – | 2.5 nM | – | 1.8 nM | 17 nM | 1.7 nM | 6.1 nM | 1790 nM | 1.7 nM | GI50 [1, 12]: 11 nM; GI50 [1, 13]: 21 nM; GI50 [1, 14]: 22 nM; GI50 [1, 15]: 16 nM; GI50 [1, 16]: 55 nM; GI50 [1, 17]: 9.9 nM; GI50 (PC-9; Homo sapiens, PC-9, 72 h): 29 nM
Cn1ncc2c1OCCN1CC3CCC(C3)(C1)n1c(nc3ccc(N4CCOCC4)cc31)NC(=O)c1cc-2c(=O)n(C)c1 (stereo not drawn) [Example A62] | 7.6 nM | 63 nM | 144 nM | 2370 nM | 2040 nM | 0.66 nM | 5.3 nM | 10 nM | 9.2 nM | 9.2 nM | 4.4 nM | 6.1 nM | 3.8 nM | 4.9 nM | 6.2 nM | 7.3 nM | 6.3 nM | 9.6 nM | – | – | –
Cn1ncc2c1OCCN1CC3CCC(CC3)(C1)n1c(nc3ccc(N4CCOCC4)cc31)NC(=O)c1cc-2c(=O)n(C)c1 [Example A74, 15,21-Dimethyl-5-(morpholin-4-yl)-23-oxa-2,9,11,15,20,21,26-heptaazaheptacyclo[26.2.2.1^{1,26}.1^{13,17}.0^{2,10}.0^{3,8}.0^{18,22}]tetratriaconta-3,5,7,9,13,17(34),18(22),19-octaene-12,16-dione] | 81 nM | 573 nM | 707 nM | – | > 5000 nM | – | – | – | – | – | – | – | 23 nM | – | 8.6 nM | 367 nM | 6.8 nM | 24 nM | 2370 nM | 4.5 nM | GI50 [1, 12]: 40 nM; GI50 [1, 13]: 41 nM; GI50 [1, 14]: 41 nM; GI50 [1, 15]: 60 nM; GI50 [1, 16]: 104 nM; GI50 [1, 17]: 37 nM; GI50 (PC-9; Homo sapiens, PC-9, 72 h): 84 nM
